Assay results from article PMC3399898, “Immobilization of β-Galactosidase onto Functionalized Graphene Nano-sheets Using Response Surface Methodology and Its Analytical Applications” (PLoS ONE, 2012).

Test system: T1, Chick pea β-galactosidase (CpGAL)
T1 construct: native enzyme purified from dry seeds (local market), homogeneous on SDS-PAGE; soluble (free) form
Assay: steady-state kinetics, Lineweaver-Burk plot
Format: biochemical, Cicer arietinum
Conditions: soluble enzyme; optimum pH 2.8, 60 °C printed; pH of the Km assay not stated; read-out: Soluble / ONPG
Description: steady-state kinetics, Lineweaver-Burk plot on Chick pea β-galactosidase (CpGAL)

Km: 1730 µM
Structure (SMILES): O=[N+]([O-])c1ccccc1O[C@@H]1O[C@H](CO)[C@H](O)[C@H](O)[C@H]1O [ONPG]
